According to US11370798B2 (Vertex Pharmaceuticals Incorporated, priority 2012, dated 2022):

tested on: HCT116 colorectal cancer cells; experiment: Cisplatin sensitization assay (96 h cell viability MTS); format: cell-based; details: compound and Cisplatin added simultaneously, Cisplatin sensitization value;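 note: Test-compound concentration that lowers the Cisplatin IC50 by a set fold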
Procedure, shortened: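 Compound and cisplatin added together as a full matrix of 2-fold serial dilutions from a top final concentration of 10 μM; cells incubated 96 h at 37° C, 5% CO2. Viability then read by MTS after 1 h further incubation; sensitization value reported in μM bins.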

| SMILES | Cisplatin Sensitization Assay |
| --- | --- |
| CN1CCOC2(CCN(c3c(F)cncc3NC(=O)c3c(N)nn4cc(F)cnc34)CC2)C1 [I-N-272, 2-amino-6-fluoro-N-(5-fluoro-4-(4-methyl-1-oxa-4,9-diazaspiro[5.5]undecan-9-yl)pyridin-3-yl)pyrazolo[1,5-a]pyrimidine-3-carboxamide] | +++ (Cisplatin sensitization value of <0.02 μM) |
| Nc1nn2cc(F)cnc2c1C(=O)Nc1cncc(F)c1N1CCC(S(=O)(=O)N2CCN3CCC2CC3)CC1 [I-N-273, N-(4-(4-(1,4-diazabicyclo[3.2.2]nonan-4-ylsulfonyl)piperidin-1-yl)-5-fluoropyridin-3-yl)-2-amino-6-fluoropyrazolo[1,5-a]pyrimidine-3-carboxamide] | +++ (Cisplatin sensitization value of <0.02 μM) |
| Nc1nn2cc(F)cnc2c1C(=O)Nc1cncc(F)c1N1CCN(C(=O)C2CCOC2)CC1 (centres unmarked) [I-N-274, 2-amino-6-fluoro-N-(5-fluoro-4-(4-(tetrahydrofuran-3-carbonyl)piperazin-1-yl)pyridin-3-yl)pyrazolo[1,5-a]pyrimidine-3-carboxamide] | +++ (Cisplatin sensitization value of <0.02 μM) |
| CC(=O)N1CCN(c2c(F)cncc2NC(=O)c2c(N)nn3cc(F)cnc23)CC1 [I-N-275, N-(4-(4-acetylpiperazin-1-yl)-5-fluoropyridin-3-yl)-2-amino-6-fluoropyrazolo[1,5-a]pyrimidine-3-carboxamide] | +++ (Cisplatin sensitization value of <0.02 μM) |
| Nc1nn2cc(F)cnc2c1C(=O)Nc1cncc(F)c1N1CCN(C(=O)C2CC2)CC1 [I-N-276, 2-amino-N-(4-(4-(cyclopropanecarbonyl)piperazin-1-yl)-5-fluoropyridin-3-yl)-6-fluoropyrazolo[1,5-a]pyrimidine-3-carboxamide] | +++ (Cisplatin sensitization value of <0.02 μM) |
| Nc1nn2cc(F)cnc2c1C(=O)Nc1cncc(F)c1N1CCN2C(=O)CCCC2C1 (centres unmarked) [I-N-277, 2-amino-6-fluoro-N-(5-fluoro-4-(6-oxohexahydro-1H-pyrido[1,2-a]pyrazin-2(6H)-yl)pyridin-3-yl)pyrazolo[1,5-a]pyrimidine-3-carboxamide] | +++ (Cisplatin sensitization value of <0.02 μM) |
| Nc1nn2cc(F)cnc2c1C(=O)Nc1cncc(F)c1N1CCN(C(=O)C2COC2)CC1 [I-N-278, 2-amino-6-fluoro-N-(5-fluoro-4-(4-(oxetane-3-carbonyl)piperazin-1-yl)pyridin-3-yl)pyrazolo[1,5-a]pyrimidine-3-carboxamide] | +++ (Cisplatin sensitization value of <0.02 μM) |
| Nc1nn2cc(F)cnc2c1C(=O)Nc1cncc(F)c1N1CCN2C(=O)CCC[C@H]2C1 [I-N-279, (S)-2-amino-6-fluoro-N-(5-fluoro-4-(6-oxohexahydro-1H-pyrido[1,2-a]pyrazin-2(6H)-yl)pyridin-3-yl)pyrazolo[1,5-a]pyrimidine-3-carboxamide] | +++ (Cisplatin sensitization value of <0.02 μM) |
| Nc1nn2cc(F)cnc2c1C(=O)Nc1cncc(F)c1N1CCN2C(=O)CCC[C@@H]2C1 [I-N-280, (R)-2-amino-6-fluoro-N-(5-fluoro-4-(6-oxohexahydro-1H-pyrido[1,2-a]pyrazin-2(6H)-yl)pyridin-3-yl)pyrazolo[1,5-a]pyrimidine-3-carboxamide] | +++ (Cisplatin sensitization value of <0.02 μM) |
| Nc1nn2cc(F)cnc2c1C(=O)Nc1cncc(Cl)c1N1CCCC1 [I-N-281, 2-amino-N-(5-chloro-4-(pyrrolidin-1-yl)pyridin-3-yl)-6-fluoropyrazolo[1,5-a]pyrimidine-3-carboxamide] | +++ (Cisplatin sensitization value of <0.02 μM) |
| COCC1CCN(c2ccncc2NC(=O)c2c(N)nn3cc(F)cnc23)CC1 [I-N-282, 2-amino-6-fluoro-N-(4-(4-(methoxymethyl)piperidin-1-yl)pyridin-3-yl)pyrazolo[1,5-a]pyrimidine-3-carboxamide] | +++ (Cisplatin sensitization value of <0.02 μM) |
| Cc1cncn1-c1ccncc1NC(=O)c1c(N)nn2cc(F)cnc12 [I-N-283, 2-amino-6-fluoro-N-(4-(5-methyl-1H-imidazol-1-yl)pyridin-3-yl)pyrazolo[1,5-a]pyrimidine-3-carboxamide] | ++ (Cisplatin sensitization value>0.02 μM but <0.2 μM) |
| Nc1nn2cc(F)cnc2c1C(=O)Nc1cncc(Cl)c1N1CCC(O)C1 (centres unmarked) [I-N-284, 2-amino-N-(5-chloro-4-(3-hydroxypyrrolidin-1-yl)pyridin-3-yl)-6-fluoropyrazolo[1,5-a]pyrimidine-3-carboxamide] | +++ (Cisplatin sensitization value of <0.02 μM) |
| N#C[C@@H]1CCN(c2c(Cl)cncc2NC(=O)c2c(N)nn3cc(F)cnc23)C1 [I-N-285, (R)-2-amino-N-(5-chloro-4-(3-cyanopyrrolidin-1-yl)pyridin-3-yl)-6-fluoropyrazolo[1,5-a]pyrimidine-3-carboxamide] | ++ (Cisplatin sensitization value>0.02 μM but <0.2 μM) |
| CN1CC2CN(c3c(Cl)cncc3NC(=O)c3c(N)nn4cc(F)cnc34)CC2C1 (centres unmarked) [I-N-286, 2-amino-N-(5-chloro-4-(5-methylhexahydropyrrolo[3,4-c]pyrrol-2(1H)-yl)pyridin-3-yl)-6-fluoropyrazolo[1,5-a]pyrimidine-3-carboxamide] | ++ (Cisplatin sensitization value>0.02 μM but <0.2 μM) |
| CS(=O)(=O)C1CCN(c2c(Cl)cncc2NC(=O)c2c(N)nn3cc(F)cnc23)C1 (centres unmarked) [I-N-287, 2-amino-N-(5-chloro-4-(3-(methylsulfonyl)pyrrolidin-1-yl)pyridin-3-yl)-6-fluoropyrazolo[1,5-a]pyrimidine-3-carboxamide] | +++ (Cisplatin sensitization value of <0.02 μM) |
| Nc1nn2cc(F)cnc2c1C(=O)Nc1cncc(F)c1N1CCC(n2ccnc2)CC1 [I-N-288, N-(4-(4-(1H-imidazol-1-yl)piperidin-1-yl)-5-fluoropyridin-3-yl)-2-amino-6-fluoropyrazolo[1,5-a]pyrimidine-3-carboxamide] | +++ (Cisplatin sensitization value of <0.02 μM) |
| CN1CCN(C(=O)C2CCCN(c3c(F)cncc3NC(=O)c3c(N)nn4cc(F)cnc34)C2)CC1 (centres unmarked) [I-N-289, 2-amino-6-fluoro-N-(5-fluoro-4-(3-(4-methylpiperazine-1-carbonyl)piperidin-1-yl)pyridin-3-yl)pyrazolo[1,5-a]pyrimidine-3-carboxamide] | ++ (Cisplatin sensitization value>0.02 μM but <0.2 μM) |
| CN(C)C(=O)C1CCCN(c2ccncc2NC(=O)c2c(N)nn3cc(F)cnc23)C1 (centres unmarked) [I-N-290, 2-amino-N-(4-(3-(dimethylcarbamoyl)piperidin-1-yl)pyridin-3-yl)-6-fluoropyrazolo[1,5-a]pyrimidine-3-carboxamide] | ++ (Cisplatin sensitization value>0.02 μM but <0.2 μM) |
| CN1CC[C@H](Oc2ccncc2NC(=O)c2c(N)nn3cc(F)cnc23)C1 [I-O-1, (S)-2-amino-6-fluoro-N-(4-((1-methylpyrrolidin-3-yl)oxy)pyridin-3-yl)pyrazolo[1,5-a]pyrimidine-3-carboxamide] | +++ (Cisplatin sensitization value of <0.02 μM) |
| CN(C)Cc1ccc(Oc2ccncc2NC(=O)c2c(N)nn3cc(F)cnc23)cn1 [I-O-3, 2-amino-N-(4-((6-((dimethylamino)methyl)pyridin-3-yl)oxy)pyridin-3-yl)-6-fluoropyrazolo[1,5-a]pyrimidine-3-carboxamide] | ++ (Cisplatin sensitization value>0.02 μM but <0.2 μM) |
| COc1ccncc1NC(=O)c1c(N)nn2cc(F)cnc12 [I-O-4, 2-amino-6-fluoro-N-(4-methoxypyridin-3-yl)pyrazolo[1,5-a]pyrimidine-3-carboxamide] | ++ (Cisplatin sensitization value>0.02 μM but <0.2 μM) |
| Nc1nn2cc(F)cnc2c1C(=O)Nc1cnccc1O[C@H]1CN2CCC1CC2 [I-O-5, (R)-2-amino-6-fluoro-N-(4-(quinuclidin-3-yloxy)pyridin-3-yl)pyrazolo[1,5-a]pyrimidine-3-carboxamide] | +++ (Cisplatin sensitization value of <0.02 μM) |
| Nc1nn2cc(F)cnc2c1C(=O)Nc1cnccc1Oc1cccnc1 [I-O-7, 2-amino-6-fluoro-N-(4-(pyridin-3-yloxy)pyridin-3-yl)pyrazolo[1,5-a]pyrimidine-3-carboxamide] | ++ (Cisplatin sensitization value>0.02 μM but <0.2 μM) |
| Nc1nn2cc(F)cnc2c1C(=O)Nc1cnccc1OC1CCC(C(=O)O)CC1 (centres unmarked) [I-O-8, 4-((3-(2-amino-6-fluoropyrazolo[1,5-a]pyrimidine-3-carboxamido)pyridin-4-yl)oxy)cyclohexanecarboxylic acid] | + (Cisplatin sensitization value>0.2 μM but <5 μM) |
| Nc1nn2cc(F)cnc2c1C(=O)Nc1cnccc1O[C@H]1CCCN(C2COC2)C1 [I-O-9, (S)-2-amino-6-fluoro-N-(4-((1-(oxetan-3-yl)piperidin-3-yl)oxy)pyridin-3-yl)pyrazolo[1,5-a]pyrimidine-3-carboxamide] | ++ (Cisplatin sensitization value>0.02 μM but <0.2 μM) |
| CN1CCC(Oc2ccncc2NC(=O)c2c(N)nn3cc(F)cnc23)CC1 [I-O-12, 2-amino-6-fluoro-N-(4-((1-methylpiperidin-4-yl)oxy)pyridin-3-yl)pyrazolo[1,5-a]pyrimidine-3-carboxamide] | +++ (Cisplatin sensitization value of <0.02 μM) |
| COC(=O)[C@H]1CC[C@H](Oc2ccncc2NC(=O)c2c(N)nn3cc(F)cnc23)CC1 [I-O-13, (1r,4r)-methyl 4-((3-(2-amino-6-fluoropyrazolo[1,5-a]pyrimidine-3-carboxamido)pyridin-4-yl)oxy)cyclohexanecarboxylate] | +++ (Cisplatin sensitization value of <0.02 μM) |
| CCOc1ccncc1NC(=O)c1c(N)nn2cc(F)cnc12 [I-O-14, 2-amino-N-(4-ethoxypyridin-3-yl)-6-fluoropyrazolo[1,5-a]pyrimidine-3-carboxamide] | +++ (Cisplatin sensitization value of <0.02 μM) |
